# Assays:
# rat DTDST = target: T1, rat DTDST (Rattus norvegicus, UniProt O70531); conditions: Satoh, 1998; cited from earlier work
# T1 sequence (O70531 1-739): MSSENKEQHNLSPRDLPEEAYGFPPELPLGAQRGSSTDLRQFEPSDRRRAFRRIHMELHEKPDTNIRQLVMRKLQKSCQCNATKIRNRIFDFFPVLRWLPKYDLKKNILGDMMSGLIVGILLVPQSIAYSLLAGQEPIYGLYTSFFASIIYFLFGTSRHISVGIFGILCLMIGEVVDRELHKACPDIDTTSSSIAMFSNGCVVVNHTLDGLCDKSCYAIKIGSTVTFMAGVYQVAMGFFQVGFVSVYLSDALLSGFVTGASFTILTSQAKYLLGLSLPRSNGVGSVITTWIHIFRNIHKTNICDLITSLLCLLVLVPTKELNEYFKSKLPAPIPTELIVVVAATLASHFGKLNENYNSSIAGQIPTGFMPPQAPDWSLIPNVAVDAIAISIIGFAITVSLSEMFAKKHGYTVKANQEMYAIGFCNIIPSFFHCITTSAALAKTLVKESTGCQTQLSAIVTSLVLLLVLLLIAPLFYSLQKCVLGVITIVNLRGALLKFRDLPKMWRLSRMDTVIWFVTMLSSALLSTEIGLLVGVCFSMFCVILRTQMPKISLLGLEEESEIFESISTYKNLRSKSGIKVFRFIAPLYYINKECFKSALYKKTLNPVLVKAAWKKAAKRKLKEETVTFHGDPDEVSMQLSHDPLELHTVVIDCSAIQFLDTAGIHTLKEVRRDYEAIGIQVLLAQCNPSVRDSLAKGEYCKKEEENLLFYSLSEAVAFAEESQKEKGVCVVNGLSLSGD
# mouse SLC26A6b = target: T2, mouse SLC26A6b (Mus musculus, UniProt Q8CIW6, R572P); test: Radiolabelled anion uptake/exchange in Xenopus oocytes expressing mouse SLC26A6b; assay type: cell-based
# T2 construct: Full-length mouse SLC26A6b and SLC26A 1 cDNAs were cloned into the Xenopus expression vector pGEMHE; expressed in transfected cells; host or cells: Xenopus laevis oocytes injected with in vitro transcribed cRNA (pGEMHE)
# T2 sequence (Q8CIW6 24-758 R572P limits assumed): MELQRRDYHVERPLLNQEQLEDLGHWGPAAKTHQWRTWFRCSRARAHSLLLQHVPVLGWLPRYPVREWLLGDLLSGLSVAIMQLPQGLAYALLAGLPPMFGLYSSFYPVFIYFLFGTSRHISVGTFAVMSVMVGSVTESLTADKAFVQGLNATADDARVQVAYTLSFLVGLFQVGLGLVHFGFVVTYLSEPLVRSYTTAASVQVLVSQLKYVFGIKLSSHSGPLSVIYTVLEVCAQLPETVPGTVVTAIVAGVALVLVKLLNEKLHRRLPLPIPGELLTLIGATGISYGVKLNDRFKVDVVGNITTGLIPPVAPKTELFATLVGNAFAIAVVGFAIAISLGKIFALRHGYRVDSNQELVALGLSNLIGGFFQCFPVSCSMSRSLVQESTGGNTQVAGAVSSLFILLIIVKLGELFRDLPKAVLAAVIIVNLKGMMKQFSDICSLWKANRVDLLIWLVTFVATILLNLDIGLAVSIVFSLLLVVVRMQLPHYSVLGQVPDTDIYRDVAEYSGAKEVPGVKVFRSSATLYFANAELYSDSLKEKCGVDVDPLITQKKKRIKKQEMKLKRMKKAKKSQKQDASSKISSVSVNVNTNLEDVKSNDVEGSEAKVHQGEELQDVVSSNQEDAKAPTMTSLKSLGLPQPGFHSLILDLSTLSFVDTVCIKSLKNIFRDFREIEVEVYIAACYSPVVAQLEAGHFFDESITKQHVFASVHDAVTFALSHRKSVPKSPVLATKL
# Procedure: Full-length mouse SLC26A6b and SLC26A 1 cDNAs were cloned into the Xenopus expression vector pGEMHE (Liman et al., 1992). The SLC26A6 and SLC26A1 expression constructs were linearized, and cRNA was transcribed in vitro using T7 RNA polymerase and a […] MMACHINE® transcription kit (Ambion, Inc. of Austin, Tex., United States of America). Defolliculated oocytes were injected with 25 nl to 50 nl of water or with a solution containing cRNA at a concentration of 0.5 μg/μl (12.5 ng to 25 ng per oocyte) using a Nanoliter-2000 injector (WPI Instruments of Sarasota, Fla., United States of America). Oocytes were incubated at 17° C. in 50% Leibovitz's L-15 media supplemented with penicillin/streptomycin (1000 units/ml) and glutamine for 2-3 days for uptake assays.
# For sulphate uptake assays, oocytes were pre-incubated for 20 minutes in chloride-free uptake medium (100 mM NMDG gluconate, 2 mM potassium gluconate, 1 mM calcium gluconate, 1 mM magnesium gluconate, 10 mM HEPES-Tris, pH 6.0 or pH 7.5 as indicated), followed by a 60-minute period for uptake in the same medium supplemented with 1 mM K2^35SO4 (40 μCi/ml). The cells were then washed three times in uptake buffer with 5 mM cold K2SO4 to remove tracer activity in the extracellular fluid. The oocytes were dissolved individually in 10% SDS, and tracer activity was determined by scintillation counting. Uptake of chloride, formate, and oxalate was assayed using the same chloride-free uptake solutions, substituting 8.3 mM ^36Cl, 500 μM [^14C]oxalate, or 50 μM [^14C]formate for labeled sulphate.
# For sulphate exchange and cis-inhibition experiments, the concentration of NMDG-gluconate in the uptake solution was adjusted to maintain isotonic osmolality, which was confirmed experimentally using a FISKE® osmometer (Fiske Associates, Inc. of Bethel, Conn., United States of America).
smiles,measurement,setting,value
O=C(O)C(=O)O [oxalate],cis-inhibition of sulphate transport,rat DTDST,cis-inhibited
same,oxalate uptake,mouse SLC26A6b; 500 μM [14C]oxalate (FIG. 8A),487±50 pmol/oocyte/hour
same,exchange of SO4 2− with extracellular anion (trans-stimulation of 35SO4 efflux),"mouse SLC26A6b; 10 mM of the anion, 30 minutes (FIG. 7C)",clearly mediated exchange

# Reference: patent US20060014940A1, “Cloning and characterization of slc26a6, slc26a1, and slc26a2 anion exchangers” (priority 2002, published 2006)
